Source: patent US20250296937A1, “CYCLIC BISBENZYL TETRAHYDROISOQUINOLINE COMPOUND, AND PREPARATION METHOD THEREFOR AND USE THEREOF” (Shanghai Institute of Materia Medica, Chinesse Academy of …, priority 2021, published 2025)
Entries after “also recorded” stand apart in the source; their conditions may differ.

How the values were obtained:
[1] = target: novel coronavirus envelope protein (2-E) ion channel (Severe acute respiratory syndrome coronavirus 2, UniProt P0DTC4); experiment: Novel coronavirus envelope protein (2-E) ion channel activity test, planar lipid bilayer (BLM); format: biochemical, SARS-CoV-2; conditions: room temperature, 1, 10, 50, 100 μM, read-out: Inhibition against 2-E ion channels IC50
[2] = test system: inflammatory factor mRNA in Raw 264.7 cells; experiment: mRNA levels of inflammatory indicators in TNF-α-induced inflammation model of Raw264.7 cells (Q-PCR); format: cell-based; conditions: 10 ng/ml TNF-α, 1 μM compound, 16 hours
Experimental: (§1) In this embodiment, the effect of compounds on TNF-α-induced inflammation levels in Raw 264.7 cells was analyzed by cell viability combined with inflammatory factor expression levels; cell viability was analyzed by CCK-8 assay; and mRNA expression levels of inflammation-associated indicators were detected by real-time quantitative PCR (Q-PCR) method. Raw 264.7 cells were purchased from ATCC, CCK-8 kit was purchased from Meilunbio, item number MA0218-3, TNF-α was purchased from Merck, item no. GF314.
Experimental methods: first, 5*10^4 cells/well Raw 264.7 cells were placed in 12-well plates and incubated overnight. On the second day, 0.1% DMSO was added to the control cells, 10 ng/ml TNF-α as well as 0.1% DMSO was added to the model group, 10 ng/ml TNF-α as well as 1 μM of the compounds (oxyacanthine hydrochloride (oxy), 1, 2, tetrandrine (tet), 3, 4, 6, 58) was added to the treatment group, and the 12-well plates were sterilized and incubated in a constant temperature incubator for 16 hours. Cellular mRNA was extracted by lysis using Trizol (Yisheng, 10606ES60) and detected by real-time quantitative PCR after reverse transcription, the primers are the same as in Table 2.

[3] = test system: Th1/Th17 differentiation of CD4+T cells; experiment: CD4+T cell in vitro differentiation assay (Th1 IFN-γ / Th17 IL-17A, flow cytometry); parameters: inhibitory effect on Th1/Th17 differentiation at lower concentration: dose or concentration left out as unconfirmed; conditions: 72 h; for inhibitory effect on Th1/Th17 differentiation: 10 μM, IFN-γ/IL-17A by flow cytometry
Experimental: CD4^+T cell isolation: CD4^+T cells were isolated from the spleens of 7-8 week old C57BL/6 mice using the Mouse CD4^+T Cell Sorting Kit (Dynabeads® Untouched™ Mouse CD4 Cells Isolation Kit, Invitrogen, Catalog nos: 11415D).
In vitro differentiation of CD4^+T cells: the isolated CD4^+T cells were inoculated into 96-well plates while different concentrations of compounds were added, and then corresponding cytokines and antibodies were added: anti-CD28 (2 μg/ml), anti-CD3 (2 μg/ml), Anti-IL-4 (10 μg/ml), IL-12 (10 ng/ml), Anti-IFN-γ (10 μg/ml), anti-IL-4 (10 μg/ml), IL-6 (30 ng/ml), TGF-β1 (3 ng/ml), IL-10 (10 ng/ml), IL-23 (10 ng/ml), and TNF-α (10 ng/ml). Cells were cultured in 5% CO2 at 37° C. in a cell culture chamber for 72 h. Cells were collected, stained intracellularly, analyzed by flow cytometry, and tested for IFN-γ/IL-17A content to assess the effect of compounds on CD4^+T differentiation into Th1/Th17 in vitro.

ALM12 hepatocytes = experiment: Anti H2O2-induced necrotic injury assay in ALM12 hepatocytes (microscopy, CCK-8); format: cell-based; conditions: 2 mM H2O2, 1 μM compound, 3 hours, microscope and CCK-8
Experimental: In this example, the effect of the compounds of the present invention on the level of necrotic injury induced by H2O2 in ALM12 hepatocytes was analyzed by microscopic morphological observations, cell viability in combination with cell death-associated molecules. Cell viability was analyzed by CCK-8 assay. ALM12 cells were cultured in 1640 medium (gibco, c11995500BT)+10% FBS (gibco, 10099141C) in a constant temperature incubator at 37° C., 5% CO2; the CCK-8 kit was purchased from Meilunbio, item no. MA0218-3; H2O2 was purchased from Sinopharm Chemical Reagent Co. item no. 10011208.
Experimental methods: first, 8000 cells/well ALM12 cells were placed in 96-well plates and incubated overnight. On the second day, 0.1% DMSO was added to the control cells, 2 mM H2O2 as well as 0.1% DMSO was added to the model group, 2 mM H2O2 as well as 1 μM of the compounds (oxy, 1, 2, tet, 3, 4, 6, 58) was added to the treatment group, and the 96-well plates were sterilized and incubated in a constant temperature incubator for 3 hours. Finally, cell injury and growth were observed using a microscope; the viability of the cells was detected by CCK-8 kit.

[4] = Cytotoxicity test on Vero E6 cells (CCK8); format: cell-based; conditions: African green monkey; Vero E6 cells, CCK8 kit
Experimental: (§2) In this embodiment, the half toxicity concentration of each embodiment on Vero E6 cells was determined by CCK8 kit analysis (CC50).

Vero E6 cells = experiment: Cytotoxicity test on Vero E6 cells (CCK8); format: cell-based; conditions: Vero E6 cells
Experimental: as §2

hERG potassium channel = target: T1, hERG potassium channel (Homo sapiens, UniProt Q12809); experiment: hERG potassium channel whole-cell membrane clamp in CHO cells; format: cell-based; conditions: for IC50: CHO cells stably expressing hERG, whole-cell membrane clamp
T1 construct: expressed in transfected cells
Experimental: Compounds were given for at least 1 min for each tested concentration, and at least 2 cells (n≥2) were tested per concentration.

Raw 264.7 cells [5] = experiment: Cell viability in TNF-α induced inflammation model of Raw 264.7 cells (CCK-8); format: cell-based; conditions: 10 ng/ml TNF-α, 1 μM compound, 16 hours
Experimental: as §1
Experimental methods: first, 8000 cells/well Raw 264.7 cells were placed in 96-well plates and incubated overnight. On the second day, 0.1% DMSO was added to the control cells, 10 ng/ml TNF-α as well as 0.1% DMSO was added to the model group, 10 ng/ml TNF-α as well as 1 μM of the compounds (oxyacanthine hydrochloride (oxy), 1, 2, tetrandrine (tet), 3, 4, 6, 58) was added to the treatment group, and the 96-well plates were sterilized and incubated in a constant temperature incubator for 16 hours. Finally, the viability of the cells was detected using the CCK-8 kit.

Raw 264.7 cells [6] = experiment: Cell viability in LPS-induced inflammation model of Raw 264.7 cells (CCK-8); format: cell-based; conditions: 1 μg/ml LPS, 1 μM compound, 16 hours
Experimental: In this example, the effect of the compounds of the present invention on the inflammation level of the LPS-induced inflammation model of Raw 264.7 cells was analyzed by cell viability in combination with inflammatory factors; cell viability was analyzed by CCK-8 assay; and mRNA expression levels of inflammation-related indicators were detected by a real-time quantitative PCR (Q-PCR) method. Raw 264.7 cells were purchased from ATCC; CCK-8 kit was purchased from Meilunbio, item no. MA0218-3; LPS was purchased from Sigma, item no. L2630.
Experimental methods: first, 8000 cells/well Raw 264.7 cells were placed in 96-well plates and incubated overnight. On the second day, 0.1% DMSO was added to the control cells, 1 μg/ml LPS as well as 0.1% DMSO was added to the model group, 1 μg/ml LPS as well as 1 μM of the compounds (oxyacanthine hydrochloride (oxy), 1, 2, tetrandrine (tet), 3, 4, 6, 58) was added to the treatment group, and the 96-well plates were sterilized and incubated in a constant temperature incubator for 16 hours. Finally, the viability of the cells was detected using the CCK-8 kit.

hNav1.5 sodium channel = hNav1.5 sodium channel (Homo sapiens, UniProt Q14524)
Chain of hNav1.5 sodium channel (Q14524 whole entry): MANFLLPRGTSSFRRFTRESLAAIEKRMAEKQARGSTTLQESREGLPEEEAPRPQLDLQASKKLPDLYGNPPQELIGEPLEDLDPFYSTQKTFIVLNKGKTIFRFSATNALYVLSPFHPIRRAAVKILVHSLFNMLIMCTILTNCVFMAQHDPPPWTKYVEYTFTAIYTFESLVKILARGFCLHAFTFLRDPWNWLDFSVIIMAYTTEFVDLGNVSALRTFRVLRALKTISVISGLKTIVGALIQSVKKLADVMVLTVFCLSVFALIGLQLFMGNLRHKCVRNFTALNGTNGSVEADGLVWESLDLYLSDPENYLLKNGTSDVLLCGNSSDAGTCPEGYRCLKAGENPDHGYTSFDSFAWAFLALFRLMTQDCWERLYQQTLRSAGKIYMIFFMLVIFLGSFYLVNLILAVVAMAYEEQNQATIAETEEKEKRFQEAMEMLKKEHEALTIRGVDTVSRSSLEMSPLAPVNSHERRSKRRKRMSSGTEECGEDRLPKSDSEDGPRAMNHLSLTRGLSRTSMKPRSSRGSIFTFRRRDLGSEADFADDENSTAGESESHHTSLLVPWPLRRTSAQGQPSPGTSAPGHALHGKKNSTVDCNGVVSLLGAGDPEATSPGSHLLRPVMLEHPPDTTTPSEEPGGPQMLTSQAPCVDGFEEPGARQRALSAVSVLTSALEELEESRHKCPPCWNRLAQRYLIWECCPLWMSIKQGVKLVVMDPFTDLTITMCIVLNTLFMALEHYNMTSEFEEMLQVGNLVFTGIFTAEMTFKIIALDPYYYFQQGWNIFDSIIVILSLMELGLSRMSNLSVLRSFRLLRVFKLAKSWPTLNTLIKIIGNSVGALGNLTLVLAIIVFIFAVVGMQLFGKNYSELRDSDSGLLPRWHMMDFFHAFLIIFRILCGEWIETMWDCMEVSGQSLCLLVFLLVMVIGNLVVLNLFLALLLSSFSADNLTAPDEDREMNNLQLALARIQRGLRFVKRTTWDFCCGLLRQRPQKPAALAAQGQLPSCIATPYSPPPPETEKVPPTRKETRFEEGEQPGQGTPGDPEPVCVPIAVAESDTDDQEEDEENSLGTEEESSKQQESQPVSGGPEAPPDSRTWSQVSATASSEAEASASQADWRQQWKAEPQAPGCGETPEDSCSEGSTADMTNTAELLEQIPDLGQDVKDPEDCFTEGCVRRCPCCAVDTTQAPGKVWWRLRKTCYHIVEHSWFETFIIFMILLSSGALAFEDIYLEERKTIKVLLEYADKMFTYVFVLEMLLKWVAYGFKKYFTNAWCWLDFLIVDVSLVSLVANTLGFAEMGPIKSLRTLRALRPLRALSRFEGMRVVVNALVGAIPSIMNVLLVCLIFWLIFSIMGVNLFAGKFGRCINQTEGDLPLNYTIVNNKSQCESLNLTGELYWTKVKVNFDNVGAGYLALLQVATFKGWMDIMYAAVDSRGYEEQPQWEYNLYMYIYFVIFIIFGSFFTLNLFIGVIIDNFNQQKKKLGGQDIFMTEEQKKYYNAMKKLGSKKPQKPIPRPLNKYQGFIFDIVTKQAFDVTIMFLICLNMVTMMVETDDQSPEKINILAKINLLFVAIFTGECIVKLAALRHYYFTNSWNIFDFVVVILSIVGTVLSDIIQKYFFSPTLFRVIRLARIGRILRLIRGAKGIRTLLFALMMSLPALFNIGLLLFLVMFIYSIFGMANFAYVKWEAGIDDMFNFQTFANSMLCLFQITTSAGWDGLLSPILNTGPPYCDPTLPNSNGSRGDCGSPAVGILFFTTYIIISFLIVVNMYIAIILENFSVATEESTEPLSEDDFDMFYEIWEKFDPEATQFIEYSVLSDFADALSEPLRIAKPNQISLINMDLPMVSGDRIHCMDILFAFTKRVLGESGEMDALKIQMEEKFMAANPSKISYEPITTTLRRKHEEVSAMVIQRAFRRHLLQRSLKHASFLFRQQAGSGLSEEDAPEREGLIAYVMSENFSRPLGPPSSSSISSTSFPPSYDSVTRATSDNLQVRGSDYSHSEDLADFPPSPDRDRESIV
Excerpt: Nav1.5: CHL cells stably expressing hNav1.5 sodium channel was used to record hNav1.5 sodium channel currents by whole-cell membrane clamp technique at room temperature. The glass microelectrodes were made from glass electrode blanks (BF150-86-10, Sutter) by pulling through a puller, and the tip resistance was about 2-5 MΩ after filling the electrode with internal fluid, and the glass microelectrodes were connected to Axopatch 200B (Molecular Devices) membrane clamp amplifier by inserting the glass microelectrodes into the amplifier probe. Clamp voltage and data recording were controlled and recorded by pClamp 10 software via a computer with a sampling frequency of 10 kHz and a filtering frequency of 2 kHz. After obtaining whole-cell recordings, the cells were clamped at −80 mV, given a hyperpolarizing voltage of 200 ms to −120 mV, and then depolarized to −20 mV for 20 ms to evoke a Nav1.5 current. This voltage stimulus was given every 10 s; after the hNav1.5 sodium current was determined to be stabilized (for at least 1 min), begins the dosing process. Concentrations of the sample to be tested were administered continuously starting from low test concentration, and each test concentration was given for 1 min to reach steady state of action or for a maximum of 3 min. A minimum of 3 cells (n≥3) were tested at each concentration of the sample to be tested, and a minimum of 2 cells (n≥2) were tested at each concentration of the positive control.
Extracellular fluid formulation (mM): 140 NaCl, 5 KCl, 1 CaCl2, 1.25 MgCl2, 10 HEPES and 10 Glucose, adjusting the pH to 7.4 with NaOH.
Intracellular fluid formulation (mM): 130 CsF, 10 NaCl, 10 EGTA and 10 HEPES, adjusting the pH to 7.2 with CsOH.

T1 sequence (Q12809 whole entry): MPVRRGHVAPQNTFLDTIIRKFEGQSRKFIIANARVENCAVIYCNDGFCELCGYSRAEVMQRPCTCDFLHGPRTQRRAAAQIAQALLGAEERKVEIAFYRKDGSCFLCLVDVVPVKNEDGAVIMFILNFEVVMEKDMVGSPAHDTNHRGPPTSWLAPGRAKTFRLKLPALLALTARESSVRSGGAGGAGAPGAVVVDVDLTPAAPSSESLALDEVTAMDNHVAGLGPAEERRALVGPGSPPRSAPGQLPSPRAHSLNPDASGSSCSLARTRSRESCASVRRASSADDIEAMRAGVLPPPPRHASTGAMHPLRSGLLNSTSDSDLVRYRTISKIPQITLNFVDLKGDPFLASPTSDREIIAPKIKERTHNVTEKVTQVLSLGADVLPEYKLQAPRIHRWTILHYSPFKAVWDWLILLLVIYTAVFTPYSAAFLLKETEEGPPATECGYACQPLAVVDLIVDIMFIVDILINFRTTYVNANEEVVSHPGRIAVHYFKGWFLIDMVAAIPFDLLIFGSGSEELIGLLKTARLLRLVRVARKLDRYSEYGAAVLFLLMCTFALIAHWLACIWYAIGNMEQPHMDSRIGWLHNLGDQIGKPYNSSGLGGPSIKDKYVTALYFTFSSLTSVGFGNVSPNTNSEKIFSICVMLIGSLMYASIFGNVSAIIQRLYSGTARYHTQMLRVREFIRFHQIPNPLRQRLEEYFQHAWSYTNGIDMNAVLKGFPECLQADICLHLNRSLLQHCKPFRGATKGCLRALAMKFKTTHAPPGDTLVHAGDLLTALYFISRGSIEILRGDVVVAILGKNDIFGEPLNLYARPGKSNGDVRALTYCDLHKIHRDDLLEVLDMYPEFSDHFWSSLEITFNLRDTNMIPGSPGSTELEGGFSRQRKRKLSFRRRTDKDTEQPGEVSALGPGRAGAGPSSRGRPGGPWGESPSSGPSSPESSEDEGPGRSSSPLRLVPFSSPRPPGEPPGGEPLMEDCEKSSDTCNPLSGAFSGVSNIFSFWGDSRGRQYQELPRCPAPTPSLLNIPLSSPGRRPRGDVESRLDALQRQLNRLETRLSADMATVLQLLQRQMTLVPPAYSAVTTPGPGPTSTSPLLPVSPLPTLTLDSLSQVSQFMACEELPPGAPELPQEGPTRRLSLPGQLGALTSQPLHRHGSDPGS
Chain of novel coronavirus envelope protein (2-E) ion channel (P0DTC4 whole entry, looked up): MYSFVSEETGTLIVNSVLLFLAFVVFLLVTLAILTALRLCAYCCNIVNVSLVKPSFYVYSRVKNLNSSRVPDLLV

| SMILES | IC50 [1] | inhibition of inflammatory factors (mRNA) in TNF-α-induced inflammation model [2] | inhibitory effect on Th1/Th17 differentiation [3] | alleviation of H2O2-induced ALM12 hepatocyte injury (ALM12 hepatocytes) | IC50 [4] | cytotoxicity on Vero E6 cells compared with oxyacanthine hydrochloride (Vero E6 cells) | activity against hERG ion channels (hERG potassium channel) | IC50 (hERG potassium channel; human, CHO cells stably expressing hERG potassium channels, pH 7.4) | cell viability in TNF-α-induced inflammation model (Raw 264.7 cells [5]) | cell viability in LPS-induced inflammation model (Raw 264.7 cells [6]) | activity against Nav1.5 channels (hNav1.5 sodium channel) | inhibitory effect on Th1/Th17 differentiation at lower concentration [3] | IC50 (hERG potassium channel) |
| --- | --- | --- | --- | --- | --- | --- | --- | --- | --- | --- | --- | --- | --- |
| COc1cc2c3cc1Oc1c(OC)c(OC)cc4c1[C@H](Cc1ccc(cc1)Oc1cc(ccc1C(N)=O)C[C@H]3N(C)CC2)N(C)CC4 [Compound 4] | < 1 µM | significantly inhibited inflammatory factors; also recorded: significant inhibition | strong inhibitory effect | significantly alleviated | > 50 µM | weaker cytotoxicity than oxyacanthine hydrochloride | weakly active | 20 µM | did not affect cell viability | did not affect cell viability |  |  |  |
| CCCCNC(=O)Oc1ccc2cc1Oc1ccc(cc1)C[C@H]1c3c(cc(OC)c(OC)c3Oc3cc4c(cc3OC)CCN(C)[C@@H]4C2)CCN1C [Compound 2] | < 10 µM | significantly inhibited inflammatory factors; also recorded: significant inhibition | strong inhibitory effect | significantly alleviated | 30 to 50 µM | weaker cytotoxicity than oxyacanthine hydrochloride | weakly active |  | did not affect cell viability | did not affect cell viability | weakly active | strong inhibitory effect | 19 µM |
